In US9751851B2, “Molecules and compositions that inhibit gram negative bacteria and their uses” (THE TRUSTEES OF PRINCETON UNIVERSITY, priority 2013, dated 2017):
“Also recorded” adds a separate entry of the source.

How the values were obtained:
[1] = tested on: wild-type P. aeruginosa PA14; assay: Microarray gene expression analysis, wild-type strain; format: cell-based; details: WT P. aeruginosa PA14, 100 μM
Description: Methods. Overnight P. aeruginosa PA14 cultures were back-diluted 1:1000 into 5 mL of fresh LB. 100 μM mBTL, or an equivalent amount of DMSO, was added to cultures which were grown aerobically with shaking at 37° C. for 17 hr. 9 ODs of cells were harvested for each treatment. Lysozyme (1 mg/mL in TE buffer) (Sigma) was added for 10 min at room temperature. Total RNA was prepared using the RNeasy Midi Kit (Qiagen). RNA was treated with RNase-Free DNaseI (Ambion) for 1 hr at 37° C., inactivated using DNaseI Inactivation Reagent Resin (Ambion), and re-purified using the RNeasy Mini Kit. […] The library was purified using the PCR Purification kit (Qiagen) and assessed for Cy3 and Cy5 incorporation using a Nanodrop ND-1000 Spectrophotometer (Nanodrop Technologies). […] Microarrays were scanned using an Agilent G2505C scanner and analyzed using Agilent Feature Extract software version 9.5. Resulting microarray intensity data were submitted to the PUMA Database (http://puma.princeton.edu) for archiving and analyzed using Matlab R2013a.
Overnight P. aeruginosa PA14 cultures were back-diluted 1:1000 into 5 mL of fresh LB. […] The library was purified using the PCR Purification kit (Qiagen) and assessed for Cy3 and Cy5 incorporation using a Nanodrop ND-1000 Spectrophotometer (Nanodrop Technologies). […]

[2] = tested on: wild-type P. aeruginosa PA14; assay: microbe, parasite or virus in culture; format: cell-based; details: for Efficacy (%): Table 3, reduction of pyocyanin vs WT P. aeruginosa PA14: 0% = WT level, 100% = background medium; for inhibition of pyocyanin production (in words): wild-type P. aeruginosa PA14, end point assays at 100 μM
Description: (§1) Methods. The oxidized form of pyocyanin imparts a green color to P. aeruginosa cultures, making the production of pyocyanin convenient to monitor by UV/Vis absorbance. Overnight P. aeruginosa cultures were subcultured into 5 mL fresh medium at 1:1000 dilution. Synthetic compounds were assayed at 100 μM for end point assays and at concentrations ranging from 200 nM to 200 μM for titrations following 17 hr of aerobic growth with shaking at 37° C. Cells were separated from culture fluids via centrifugation at 13,000 rpm for 15 min. Culture fluids were passed through 0.22 μm syringe driven filters (Millipore). Cell-free culture fluids were analyzed for pyocyanin using wavelength scans on a Beckman Coulter DU-800 spectrophotometer from 200 nm to 800 nm 695 nm was chosen for graphical representation. Titration data were fit with a variable-slope sigmoidal dose-response curve using GraphPad Prism to determine the IC50 values.
The compounds of the first library were assayed in wild-type (WT) P. aeruginosa PA14. Pyocyanin was used as a read-out for quorum sensing activity based on its absorbance at 695 nm. The efficacy of the compounds at reducing pyocyanin levels was calculated with respect to WT levels of pyocyanin, where WT levels of pyocyanin would lead to a 0% efficacy, and an absorbance equal to the background medium would lead to a 100% efficacy. Agonists that increase pyocyanin production have negative efficacy values.

[3] = tested on: ΔlasRrhlR strain of P. aeruginosa; assay: Pyocyanin production in mutant lacking LasR and RhlR; format: cell-based; details: treated vs DMSO
Description: as §1
The compounds were designed to be AHL analogs that bind and antagonize LasR and/or RhlR. If either receptor were the target, a ΔlasRrhlR strain of P. aeruginosa would not be expected to have a further reduction of pyocyanin when treated with an inhibitor.

[4] = tested on: A549 human lung cells infected with P. aeruginosa PA14; assay: A549 human lung cell infection (propidium iodide uptake); format: cell-based; details: wild-type and lasR mutant strains; 100 μM compound
Description: Methods. Human A549 cells were grown in CellStar tissue culture flasks. Prior to infection, the A549 cells were treated with trypsin-EDTA (CellGro), split, counted, and aliquotted into 96 well plates at 20,000 mammalian cells/well (cell counts were estimated using Trypan Blue (CellGro) exclusion). Cells were grown for 20 hr at 37° C. in DMEM (Invitrogen). Cells were washed 3× with warm PBS (Gibco). 100 μL of “master mix” was added to each well for each condition. Master mix contained 1 mL pre-warmed-PBS, 5 μL of 2 mg/mL propidium iodide (Bioprobes), 1 μL of a 100 mM inhibitor stock or DMSO, and 10 μL of OD600=2 P. aeruginosa PA14 grown in the presence of mBTL or DMSO. Infections were monitored using an EnVision plate reader every 2 hr with the RFP filter supplied by GE.

LasR = target: T1, LasR (Pseudomonas aeruginosa, UniProt P25084); assay: LasR-GFP assay (rsaL-gfp reporter in recombinant E. coli); format: cell-based, P. aeruginosa
T1 construct: expressed in transfected cells; host or cells: E. coli BL21-Gold (DE3) carrying pET23b-lasR
Description: (§2) Methods. The LasR-GFP assays were performed in E. coli strain BL21 DE3 Gold (Agilent) carrying pET23b (Novagen) containing lasR (maintained with 100 μg/mL ampicillin) and carrying plasmid pEVS141 (31) containing the rsaL promoter driving expression of gfp (maintained with […] of kanamycin.) The RhlR-GFP assays were performed in E. coli strain BL21 DE3 Gold (Agilent) carrying pET23b (Novagen) containing rhlR (maintained with 100 μg/mL ampicillin) and carrying plasmid pEVS141 containing the rhlA promoter driving expression of gfp (maintained with 50 μg/mL of kanamycin.) These E. coli strains were grown overnight and subcultured into fresh medium with appropriate antibiotics at a 1:100 dilution and grown shaking for 8 hr at 37° C. for the LasR-GFP strain and 12 hr for the RhlR-GFP construct. 50 nM 3OC12-HSL or 20 μM C4-HSL was added to the LasR-GFP and RhlR-GFP preparations, respectively. Compounds were tested at 1 mM for antagonism and at 100 nM or 20 μM for agonism. These concentrations were chosen for agonism studies to match the concentrations of autoinducers used in the experiments. For antagonism studies, the EC95 concentration was used for each receptor. GFP was measured on an Envision plate reader.
(§3) The LasR-GFP assays were performed in E. coli strain BL21 DE3 Gold (Agilent) carrying pET23b (Novagen) containing lasR (maintained with 100 μg/mL ampicillin) and carrying plasmid pEVS141 (31) containing the rsaL promoter driving expression of gfp (maintained with 50 μg/mL of kanamycin.) The RhlR-GFP assays were performed in E. coli strain BL21 DE3 Gold (Agilent) carrying pET23b (Novagen) containing rhlR (maintained with 100 μg/mL ampicillin) and carrying plasmid pEVS141 (31) containing the rhlA promoter driving expression of gfp (maintained with 50 μg/mL of kanamycin.) These E. coli strains were grown overnight and subcultured into fresh medium with appropriate antibiotics at a 1:100 dilution and grown shaking for 8 hr at 37° C. for the LasR-GFP strain and 12 hr for the RhlR-GFP construct. 50 nM 3OC12-HSL or 20 μM C4-HSL was added to the LasR-GFP and RhlR-GFP preparations, respectively. Compounds were tested at 1 mM for antagonism and at 100 nM or 20 μM for agonism. These concentrations were chosen for agonism studies to match the concentrations of autoinducers used in our experiments. For antagonism studies, we used the EC95 concentration for each receptor. GFP was measured on an Envision plate reader.

RhlR = target: T2, RhlR (Pseudomonas aeruginosa, UniProt P54292); assay: RhlR-GFP assay (rhlA-gfp reporter in recombinant E. coli); format: cell-based, P. aeruginosa
T2 construct: expressed in transfected cells; host or cells: E. coli BL21-Gold (DE3) carrying pET23b-rhlR
Description: as §2, §3

T2 sequence (P54292 whole entry): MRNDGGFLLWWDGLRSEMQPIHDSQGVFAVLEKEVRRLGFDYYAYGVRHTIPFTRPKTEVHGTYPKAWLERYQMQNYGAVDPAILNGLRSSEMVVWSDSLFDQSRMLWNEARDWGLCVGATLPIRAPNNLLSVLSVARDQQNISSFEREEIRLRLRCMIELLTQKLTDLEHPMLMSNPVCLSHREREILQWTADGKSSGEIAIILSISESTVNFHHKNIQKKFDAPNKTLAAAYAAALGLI
T1 sequence (P25084 whole entry): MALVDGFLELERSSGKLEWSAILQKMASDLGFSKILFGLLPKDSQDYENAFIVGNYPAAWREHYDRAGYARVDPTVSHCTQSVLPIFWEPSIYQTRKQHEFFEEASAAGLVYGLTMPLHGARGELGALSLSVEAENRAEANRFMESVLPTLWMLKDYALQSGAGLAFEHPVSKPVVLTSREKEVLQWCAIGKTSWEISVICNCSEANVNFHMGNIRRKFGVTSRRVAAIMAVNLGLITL

Molecule | effect on pyocyanin biosynthetic genes (microarray) [1] | Efficacy (%) ([2]; listed as Table 3 entry 18) | Efficacy (%) ([2]; listed as drawing 76) | inhibition of pyocyanin production (in words) [2] | pyocyanin levels in strain lacking LasR and RhlR [3] | killing of A549 cells by P. aeruginosa [4] | LasR agonism (in words) (LasR; 100 nM, no autoinducer) | inhibition of LasR-directed transcription in E. coli (in words) (LasR; tested at 1 mM with 3OC12-HSL) | RhlR agonism (in words) (RhlR; 20 μM, no autoinducer) | inhibition of RhlR-directed transcription in E. coli (in words) (RhlR; tested at 1 mM with C4-HSL)
O=C(COc1cccc(Br)c1)Nc1ccnc(C(F)(F)F)c1 [compound 16, 4-amino-2-trifluoromethylpyridine-C6-3-bromophenoxyhybrid] | none of the pyocyanin biosynthetic genes are impacted | 99 | 99 ± 0.3 | highly effective at blocking pyocyanin production | pyocyanin levels are further reduced | – | – | – | – | –
chlorolactone [CL] | – | – | – | Neither CL nor CTL inhibited pyocyanin production; also recorded: no in vivo inhibition of pyocyanin production | – | does not attenuate killing of A549 lung cells | does not agonize either receptor | more potent inhibitor of both LasR- and RhlR-directed transcription in E. coli than is mBTL; also recorded: inhibits LasR- and RhlR-controlled transcription | does not agonize either receptor | more potent inhibitor of both LasR- and RhlR-directed transcription in E. coli than is mBTL; also recorded: inhibits LasR- and RhlR-controlled transcription
